SMILES strings stand for the structures.

The series is described as follows: Human HepG2 cell viability assay in 384 well format. The note with it: HepG2 cells, read-out: Inhibition. On the set-up: dose 125 nL, time 70.5 hour; concentration not given beside the values. It counts as toxicity, cell-based.
Take `O=C(COCc1nc(-c2ccncc2)no1)N1CCOCC1`: the cytotoxicity at 70.5 h was -0.64%.

Take `CN(C)CCN1CCOCC2(CCN(Cc3ccc[nH]3)CC2)C1`: the cytotoxicity at 70.5 h was 0.665%.

Turning to `COCCc1noc(CN2CCOC(Cn3nc(C)cc3C)C2)n1` (centres undefined), the cytotoxicity at 70.5 h is 2.63%.

For the molecule `CO[C@@H]1CCN(Cc2c(C)noc2C)[C@@H]2CN(Cc3ccco3)C[C@@H]21`, the cytotoxicity at 70.5 h is -2.94%.

For `Cc1ccc(C(CNC(=O)Nc2cn[nH]c2)N2CCOCC2)o1` (centres undefined), the cytotoxicity at 70.5 h was -1.26%.

Take `CCOc1ccc(C(=O)N(C)C)cc1NC(=O)c1ccsc1`: the cytotoxicity at 70.5 h was -10.6%.

On to `FC(F)(F)COCCN1CCOC(Cn2cccn2)C1` (centres undefined), for which the cytotoxicity at 70.5 h is -0.0607%.

For the molecule `CC(C(=O)N1CCN(c2ccccc2)CC1)n1cc(Br)cn1` (centres undefined), the cytotoxicity at 70.5 h is -2.65%.

For `Cn1ncc2c(=O)[nH]c(N3CCCC3c3cccs3)nc21` (centres undefined), the cytotoxicity at 70.5 h is 17.2%.

`Cc1cn2c(CN(C)C(=O)c3ncoc3C)c(C)nc2s1`: the cytotoxicity at 70.5 h is -0.848%.

With `Cc1ncncc1C(=O)N1CCCC(n2ccnc2C)C1` (centres undefined), the cytotoxicity at 70.5 h stood at 1.79%.

Turning to `CCn1cc(NC(=O)NCC(c2ccsc2)N(C)C)cn1` (centres undefined), the cytotoxicity at 70.5 h was -6.99%.

On to `CC(C)(CN1CCC2(CCNCC2)CC1)N1CCOCC1`, for which the cytotoxicity at 70.5 h was -3.64%.

Take `N#Cc1cc(S(N)(=O)=O)ccc1N1CCN(c2ccccc2)CC1`: the cytotoxicity at 70.5 h came to 1.86%.

As to `COCC(=O)N1CCCCC1c1nc(C)c2c(n1)N(C1CC1)C(=O)CC2` (centres undefined), the cytotoxicity at 70.5 h is -3.68%.

Regarding `CCC(Oc1ccc(N(C)S(C)(=O)=O)cc1)C(=O)N(C)C` (centres undefined), the cytotoxicity at 70.5 h is -3.36%.

In the case of `O=C(CCc1ccccn1)N1CCCN(C(=O)CC2CCCC2)CC1`, the cytotoxicity at 70.5 h worked out at 4.27%.

In the case of `Cc1ccc(-c2ncc(CN3CCOC(c4ccco4)C3)s2)o1` (centres undefined), the cytotoxicity at 70.5 h was -6.87%.

`CCc1nc(CN2CCOC(Cn3nc(C)nc3C)C2)no1` (centres undefined): the cytotoxicity at 70.5 h was found to be 3.11%.

Regarding `CCNc1cc2c(nn1)CCN(C(=O)c1cccnc1N(C)C)C2`, the cytotoxicity at 70.5 h was -1.46%.

On to `c1ncc(Nc2nccc(C3CCCCN3CC3CCCCC3)n2)cn1` (centres undefined), for which the cytotoxicity at 70.5 h is -2.27%.

Turning to `COC(=O)c1ccc(CNC(C)c2ccc(S(C)(=O)=O)cc2)cc1` (centres undefined), the cytotoxicity at 70.5 h is -1.14%.

As for `CC(NC(=O)OC(C)(C)C)c1nnc(S(=O)(=O)Cc2ccccc2Cl)o1` (centres undefined), the cytotoxicity at 70.5 h was -4.85%.

For the molecule `COc1nn(C)c2c1CCCN(C(=O)c1ccccc1)C2`, the cytotoxicity at 70.5 h was -5.54%.

Take `O=C1CC2(CNCCN(C(=O)Nc3ccccc3)C2)CN1` (centres undefined): the cytotoxicity at 70.5 h is -9.89%.

As to `c1ccc(CN2CCC(NCCc3ccc4c(c3)CCO4)CC2)nc1`, the cytotoxicity at 70.5 h was determined as 0.552%.

With `CCn1ncc(CN2CCCC(C(=O)c3ccc(Cl)cc3)C2)c1C` (centres undefined), the cytotoxicity at 70.5 h was -6.46%.

As for `Cc1cnn(-c2ccc(C(=O)N3CCN(C)CC3C)cc2)c1` (centres undefined), the cytotoxicity at 70.5 h is -3.9%.

`CCc1nnc(CN2CCCC2Cn2cc(C)cn2)o1` (centres undefined): the cytotoxicity at 70.5 h came out at 17.8%.

In the case of `Cn1nnc2c1C(COCc1ccccn1)CN(C(=O)c1cccs1)C2` (centres undefined), the cytotoxicity at 70.5 h is 5.64%.

For `O=C(C1CC=CC1)N1C[C@H]2CN(Cc3ccncc3)C(=O)[C@H]2C1`, the cytotoxicity at 70.5 h is 2.42%.

With `CC(C)N1c2sc(-c3ccccc3)nc2CC1C(=O)NC1CCCC1` (centres undefined), the cytotoxicity at 70.5 h is -6.93%.

As to `COC(=O)c1cccc(C(=O)N2CCCCC2CCn2ccnc2C)c1` (centres undefined), the cytotoxicity at 70.5 h is -1.17%.

With `CC(C)S(=O)(=O)N1CCC(Cc2cccc(C(=O)O)c2)C1` (centres undefined), the cytotoxicity at 70.5 h was -4.82%.

In the case of `O=C1C=CC=N/C1=C(/O)NCCNS(=O)(=O)N1CCCCCC1`, the cytotoxicity at 70.5 h was -9.06%.

With `Fc1ccc(CN2CCC3(CC2)CN(c2ccccn2)CCO3)cc1`, the cytotoxicity at 70.5 h was found to be 2.69%.

Turning to `COC(=O)c1cccc(S(=O)(=O)NCC(c2ccco2)N2CCCC2)c1` (centres undefined), the cytotoxicity at 70.5 h is -14.2%.

`CSCC(CCO)NC(=O)Nc1cccc(Br)c1` (centres undefined): the cytotoxicity at 70.5 h is -0.357%.

In the case of `CN1C(=O)CCc2cc(NC(=O)C3CCCC3)ccc21`, the cytotoxicity at 70.5 h was 26.5%.

As to `CCOC(=O)C1(O)CCN(C(=O)Nc2cccc(F)c2)CC1`, the cytotoxicity at 70.5 h stood at 4.4%.

For the molecule `CN(C)c1ccc(CN2CCC(C(O)Cc3ccccc3)CC2)cn1` (centres undefined), the cytotoxicity at 70.5 h is -3.93%.

Consider `c1cnc(N2CCC3(CCCN(Cc4ccncc4)C3)CC2)nc1`, for which the cytotoxicity at 70.5 h was determined as 18.3%.

Take `CNC(=O)C1CN(c2ccnc(C)n2)CCN(C2CCOCC2)C1` (centres undefined): the cytotoxicity at 70.5 h is -1.96%.

Regarding `CCN(CCNC(=O)c1cccc(C)c1C)C1CC1`, the cytotoxicity at 70.5 h was -4.1%.

Turning to `O=C(Cc1ccc(O)c(Cl)c1)N1CCN(CC2CC2)[C@@H]2CS(=O)(=O)C[C@@H]21`, the cytotoxicity at 70.5 h worked out at 17.4%.

Consider `CCC(CC)(CNC(=O)OC(C)(C)C)NC(=O)c1cnccn1`, for which the cytotoxicity at 70.5 h stood at 0.78%.

As for `Cc1c[nH]nc1C1CN(Cc2cnn(-c3ccccc3C(=O)O)c2)C1`, the cytotoxicity at 70.5 h was -6.87%.

As for `CCOC(=O)c1cnn(-c2cc(Oc3cccc(C)c3)ncn2)c1N`, the cytotoxicity at 70.5 h was -0.773%.

Regarding `O=C1NCC[C@]12CN(Cc1ccoc1)C[C@H]2c1ccccc1`, the cytotoxicity at 70.5 h was determined as 16.2%.

Consider `COc1ccc(C2=CCN(C(=O)CN(C)S(C)(=O)=O)CC2)cc1`, for which the cytotoxicity at 70.5 h is -10.2%.

Consider `O=C(NCC1CC1)c1c2c(N3CCCC3)ncnc2n2ccccc12`, for which the cytotoxicity at 70.5 h was found to be 9.08%.

As to `CC(C)(C)c1ccn(C2(C(=O)O)CCN(c3ccnc(N)n3)CC2)n1`, the cytotoxicity at 70.5 h is -3.43%.

As for `CCN(CC1CCCO1)S(=O)(=O)N1CCCCCC1` (centres undefined), the cytotoxicity at 70.5 h was -8.65%.

Regarding `Cc1c(Cc2ccccc2)c(O)nc2nc(N3CCOCC3)nn12`, the cytotoxicity at 70.5 h is -8.68%.

On to `CN1CCN(C(=O)[C@@H]2CN(C)C[C@]23COc2ccc(F)cc2C3=O)CC1`, for which the cytotoxicity at 70.5 h came to 28.4%.

On to `CN(C)c1cc(C(=O)N2CCCC2c2cnn(C)c2)ccn1` (centres undefined), for which the cytotoxicity at 70.5 h worked out at 4.19%.

Consider `CCN(C(=O)NCc1ccccc1OC(F)F)C(C)c1cccnc1` (centres undefined), for which the cytotoxicity at 70.5 h is 0.0177%.

`CN(C)c1ccc(CNC2(c3ccc(F)cc3)CCOCC2)cc1F`: the cytotoxicity at 70.5 h is -7.63%.

Regarding `COc1ccc(CC(=O)N2CCCC(n3cc(C)cn3)C2)cc1F` (centres undefined), the cytotoxicity at 70.5 h is -2.2%.

Consider `CCOCC1CN(Cc2cccc(C#N)c2)Cc2nccn2C1` (centres undefined), for which the cytotoxicity at 70.5 h was -1.89%.

Take `Cc1cccc(CN2C[C@@H]3COC[C@]3(CNC(=O)C3CC3)C2)c1`: the cytotoxicity at 70.5 h was -9.63%.

Consider `COC(C)c1cccc(NC(=O)N(CCC#N)Cc2ccccn2)c1` (centres undefined), for which the cytotoxicity at 70.5 h was -6.49%.

In the case of `Cc1ccoc1CNC(C)c1nnc2n1CCCC2` (centres undefined), the cytotoxicity at 70.5 h came to 13%.

On to `CC/C=C(/C)C(=O)NS(=O)(=O)c1ccc(C#N)c(C(F)(F)F)c1`, for which the cytotoxicity at 70.5 h is -12.5%.

With `O=C(NCC(F)(F)F)C1=NOC2(CCCNC2)C1` (centres undefined), the cytotoxicity at 70.5 h came to 0.364%.

`CCO[C@@H]1CC[C@H]2[C@H]1OCCN2Cc1ccc(F)cc1`: the cytotoxicity at 70.5 h is -16.2%.

Consider `Cc1ccc(CN2CCC3(CC2)CC(c2cccnc2)CO3)s1` (centres undefined), for which the cytotoxicity at 70.5 h was 2.33%.

For `CCc1ncc(CN2C[C@@H]3C[C@@H](O)CN3C[C@@H]2Cc2ccccc2)cn1`, the cytotoxicity at 70.5 h was -5.41%.

For the molecule `Cc1cccc(CN2CCCC3(CCN(c4cccnc4)C3=O)C2)n1` (centres undefined), the cytotoxicity at 70.5 h was -3.53%.

With `COc1ccc(S(=O)(=O)NCc2cccnc2N(C)C)cc1F`, the cytotoxicity at 70.5 h was determined as 40.3%.

As to `CCc1nnc(CN2CCN(CC(O)c3ccccc3)CC2)o1` (centres undefined), the cytotoxicity at 70.5 h was -1.5%.

`CN(C)c1ncnc2c1CCN(Cc1nccs1)CC2`: the cytotoxicity at 70.5 h was -6.81%.

Regarding `COc1cccc(CNC(=O)c2cccnc2N)c1`, the cytotoxicity at 70.5 h worked out at 6.88%.

For `c1ccc(-c2cnc(CN3CCCC3Cn3cncn3)o2)cc1` (centres undefined), the cytotoxicity at 70.5 h is -14.6%.

`Cc1ccc(Nc2ncnc3c2CCN(CC2CCOC2)CC3)cc1` (centres undefined): the cytotoxicity at 70.5 h was -7.38%.

For the molecule `O=C(c1cnc(-c2cccs2)s1)N1CCCC(n2ccnc2)C1` (centres undefined), the cytotoxicity at 70.5 h was -8.31%.

For `CC(C(=O)Nc1ccc(N2CCCC2)nc1)n1cncn1` (centres undefined), the cytotoxicity at 70.5 h was -12.1%.

`Cc1noc(C)c1CCC(=O)N1CCCN(C)CC1`: the cytotoxicity at 70.5 h was -3.68%.

Regarding `CN(Cc1ccccc1)CC(O)Cn1cnc2sccc2c1=O` (centres undefined), the cytotoxicity at 70.5 h is -8.79%.

Turning to `COCC(=O)N[C@H](C(=O)NC(C)c1cccc(C)c1C)C(C)C` (some centres undefined), the cytotoxicity at 70.5 h turned out to be 0.118%.

As to `COc1ccc(F)cc1C(=O)C1CCCN(Cc2cnc(C)s2)C1` (centres undefined), the cytotoxicity at 70.5 h was -11.8%.

Turning to `CCc1cc(NC2CCS(=O)(=O)CC2)nc(N2CCCCC2)n1`, the cytotoxicity at 70.5 h is 22.5%.

With `Cn1cc(CN2CCOC(c3cccc(-c4cccc(F)c4)n3)C2)cn1` (centres undefined), the cytotoxicity at 70.5 h is -4.34%.

As for `Cc1cccc(OC2CN(C(=O)C3CC(=O)N(C(C)(C)C)C3)C2)c1` (centres undefined), the cytotoxicity at 70.5 h is -2.82%.

As to `c1csc(-c2noc(CNC3CCc4ncnn4C3)n2)c1` (centres undefined), the cytotoxicity at 70.5 h is -8.26%.

`CCc1ccc(CN2CCC(CNC(=O)c3ccc(C)nc3)C2)nc1` (centres undefined): the cytotoxicity at 70.5 h worked out at 16%.

As for `CCOc1ccccc1OC1CCN(Cc2ccn(C)c(=O)c2)CC1`, the cytotoxicity at 70.5 h turned out to be 20.3%.

As to `CN(Cc1ccccc1)C(=O)CN1CCOC(Cn2cncn2)C1` (centres undefined), the cytotoxicity at 70.5 h is -6.53%.

In the case of `CN(C)c1ccc(CN(CCCn2ccnc2)Cc2c[nH]cn2)cc1`, the cytotoxicity at 70.5 h was -13.5%.

With `CS(=O)(=O)N1C[C@H]2CCC[C@@]2(COc2ccccn2)C1`, the cytotoxicity at 70.5 h is -16.1%.

In the case of `CC(NC(=O)NCc1cccnc1N(C)C)c1cccs1` (centres undefined), the cytotoxicity at 70.5 h was -23.6%.

Regarding `CC(CC(=O)Nc1ncn(CC(=O)NCc2ccccc2)n1)C1CC1` (centres undefined), the cytotoxicity at 70.5 h was -14.7%.

Turning to `Cc1cccc(CN2CCCC3(CCN(CC4CCCO4)CC3)C2)n1` (centres undefined), the cytotoxicity at 70.5 h was -11.4%.

Consider `O=C1CCCN1Cc1ccc(C(=O)N2CCCC2c2cccs2)cc1` (centres undefined), for which the cytotoxicity at 70.5 h is -6.75%.

`CCS(=O)(=O)c1ccccc1C(=O)N1CCCC(n2cccn2)C1` (centres undefined): the cytotoxicity at 70.5 h is 18.2%.

Regarding `CC(C(=O)NCc1ccc(N2CCNC(=O)C2)cc1)n1cncn1` (centres undefined), the cytotoxicity at 70.5 h is 4.32%.

On to `COc1ccccc1C(=O)N1CCOC2(CCCN(C(C)=O)C2)C1` (centres undefined), for which the cytotoxicity at 70.5 h is -12.3%.

As for `Cn1cc(CN(C(=O)c2ccc(O)c(Cl)c2)C2CC2)cn1`, the cytotoxicity at 70.5 h was -14.8%.

As to `Cc1ccc(C(=O)Nc2cc(F)ccc2OCC2CCCO2)cn1` (centres undefined), the cytotoxicity at 70.5 h is -3.09%.
